Source: PubChem BioAssay (NCI)
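Each compound was tested at five concentrations against cells in 96-well plates for 48 hours. GI50 = concentration required for 50% inhibition of growth. TGI: total growth inhibition.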

Columns and labels:
Assay in all cases: NCI tumour cell line growth inhibition, 48 h
OVCAR-8 ovarian = system: OVCAR-8 ovarian
NCI/ADR-RES ovarian = system: NCI/ADR-RES ovarian
786-0 renal = system: 786-0 renal
EKVX NSCLC = system: EKVX NSCLC
SNB-19 CNS = system: SNB-19 CNS
M14 melanoma = system: M14 melanoma
K-562 leukemia = system: K-562 leukemia
SK-OV-3 ovarian = system: SK-OV-3 ovarian
BT-549 breast = system: BT-549 breast
MDA-MB-435 = system: MDA-MB-435

SMILES | GI50 (OVCAR-8 ovarian) [µM] | TGI (OVCAR-8 ovarian) [µM] | GI50 (NCI/ADR-RES ovarian) [µM] | TGI (NCI/ADR-RES ovarian) [µM] | GI50 (786-0 renal) [µM] | TGI (786-0 renal) [µM] | GI50 (EKVX NSCLC) [µM] | TGI (EKVX NSCLC) [µM] | GI50 (SNB-19 CNS) [µM] | TGI (SNB-19 CNS) [µM] | GI50 (M14 melanoma) [µM] | TGI (M14 melanoma) [µM] | GI50 (K-562 leukemia) [µM] | TGI (K-562 leukemia) [µM] | GI50 (SK-OV-3 ovarian) [µM] | TGI (SK-OV-3 ovarian) [µM] | GI50 (BT-549 breast) [µM] | TGI (BT-549 breast) [µM] | GI50 (MDA-MB-435) [µM] | TGI (MDA-MB-435) [µM]
CN(C)C/C=C/C(=O)Nc1ccc(C(=O)N2CCC[C@@H](Nc3ncc(Cl)c(-c4c[nH]c5ccccc45)n3)C2)cc1 | 0.406 | 11.8 | 32.8 | > 100 | 1.96 | 8.38 | 0.827 | 7.5 | 0.196 | 11.1 | 0.359 | 2.16 | 0.0863 | > 100 | 0.395 | 12.4 | 0.267 | 1.22 | 0.0832 | 1.23
O=C(O)C1C(C(=O)O)C2(Cl)C(Cl)=C(Cl)C1(Cl)C2(Cl)Cl.[Cd] (stereo not given) | 28.8 | > 86.6 | 28.6 | 80.3 | 8.59 | 22 | 19.9 | 35.6 | 40 | > 100 | 19.2 | 38.9 | 16.3 | 51.8 | 19.6 | 36.2 | 1.33 | 2.74 | 7.61 | 25.2
CC1(C)C2CCC13C(=O)C1OC3(C2)C2C(=O)c3c(O)cccc3C(=O)C12 (stereo not given) | 0.821 | 2.68 | 2.1 | 6.01 | 0.319 | 0.829 | 8.37 | 21.4 | 10.6 | 23.9 | 3.24 | 12.2 | 0.703 | 1.79 | 10.9 | 23.9 | 1.2 | 3.34 | 0.818 | 2.5
